For assay [1], the target named is T1, PTPN2 (HiBIT-PTPN2 in 293T.109 cells) (Homo sapiens, UniProt P17706).
T1 construct: expressed in transfected cells; host or cells: 293T.109 (293T WT from ATCC)
T1 sequence (P17706 1-415): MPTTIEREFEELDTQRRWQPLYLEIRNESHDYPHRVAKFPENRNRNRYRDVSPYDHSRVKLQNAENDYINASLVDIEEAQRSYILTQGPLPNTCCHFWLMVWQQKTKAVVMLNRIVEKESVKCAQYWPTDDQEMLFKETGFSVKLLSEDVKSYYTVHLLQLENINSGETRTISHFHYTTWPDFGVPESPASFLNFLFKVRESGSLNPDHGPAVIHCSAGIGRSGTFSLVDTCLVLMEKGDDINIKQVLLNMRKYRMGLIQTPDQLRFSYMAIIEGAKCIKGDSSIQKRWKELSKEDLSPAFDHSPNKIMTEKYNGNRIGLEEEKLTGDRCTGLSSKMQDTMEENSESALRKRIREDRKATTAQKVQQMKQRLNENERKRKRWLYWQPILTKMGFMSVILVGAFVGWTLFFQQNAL
As to the kind of experiment: HiBiT Degradation 293T.109 PTPN2 (Nano-Glo HiBiT Lytic Assay). In kind it is cell-based. Particulars: 24.0 hours. The gist of the method: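 293T.109 cells with ectopic N-terminal HiBiT-tagged PTPN2 (5000/well) exposed to compounds for 24 h at 37 °C, 5% CO2; 11-point half-log titration from 10 μM top, duplicates. Remaining HiBiT-PTPN2 read as luminescence with Nano-Glo HiBiT lytic reagent, normalised to untreated cells (0%) and reagent-free wells.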
On the technique in general: The HiBiT peptide binds its large partner to form an active luciferase.

The target of a further assay is T2, PTPN2 (B16F10.4 cells) (Mus musculus, UniProt Q06180).
T2 construct: HiBiT; host or cells: B16F10.4
T2 sequence (Q06180 1-406): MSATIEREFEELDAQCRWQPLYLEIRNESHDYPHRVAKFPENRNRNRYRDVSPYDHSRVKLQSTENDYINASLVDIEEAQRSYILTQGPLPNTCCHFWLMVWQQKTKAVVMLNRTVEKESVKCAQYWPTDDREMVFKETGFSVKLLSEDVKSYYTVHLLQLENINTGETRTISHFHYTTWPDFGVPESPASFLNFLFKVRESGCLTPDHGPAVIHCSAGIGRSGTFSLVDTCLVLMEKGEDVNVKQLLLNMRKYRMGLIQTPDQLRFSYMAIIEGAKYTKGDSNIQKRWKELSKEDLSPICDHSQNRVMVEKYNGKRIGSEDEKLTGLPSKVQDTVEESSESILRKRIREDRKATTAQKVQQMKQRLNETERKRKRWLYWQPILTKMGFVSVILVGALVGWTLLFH
As to the kind of experiment: HiBiT Degradation B16F10.4 PTPN2. In kind it is cell-based. Particulars: 24.0 hours.

A value given as a limit tells only on which side of the number the result lay.

As usually defined, the DC50 is the concentration giving 50% degradation. A high value points to degradation only at high concentration.

As for `Cn1c(=O)n(C2CCC(=O)NC2=O)c2ccc(N3CCC4(CC3)CN(C(=O)Nc3cccc(CS(=O)(=O)N5CCC(Nc6cccc(-c7sc(C(=O)O)c(OCC(=O)O)c7Cl)c6)CC5)c3)C4)cc21` (stereo not shown) [Example 102, 3-(carboxymethoxy)-4-chloro-5-[3-[[1-[[3-[[7-[1-(2,6-dioxo-3-piperidyl)-3-methyl-2-oxo-benzimidazol-5-yl]-2,7-diazaspiro[3.5]nonane-2-carbonyl]amino]phenyl]methylsulfonyl]-4-piperidyl]amino]phenyl]thiophene-2-carboxylic acid], the DC50 (in assay [1]; on PTPN2 (B16F10.4 cells)) was 50 to 200 nM each time.
Regarding `CC1(C)C[C@@H](Nc2cccc(-c3sc(C(=O)O)c(OCC(=O)O)c3Cl)c2)CCN1S(=O)(=O)Cc1cccc(NC(=O)N2CCC(c3ccc4c(c3)CCN4C3CCC(=O)NC3=O)CC2)c1` (stereo partly drawn) [Example 94, 3-(carboxymethoxy)-4-chloro-5-[3-[[(4S)-1-[[3-[[4-[1-(2,6-dioxo-3-piperidyl)indolin-5-yl]piperidine-1-carbonyl]amino]phenyl]methylsulfonyl]-2,2-dimethyl-4-piperidyl]amino]phenyl]thiophene-2-carboxylic acid], the DC50 (in assay [1]; on PTPN2 (B16F10.4 cells)) was 200 to 1000 nM in each case.
On to `CC1(C)C[C@@H](Nc2cccc(-c3sc(C(=O)O)c(OCC(=O)O)c3Cl)c2)CCN1S(=O)(=O)Cc1cccc(NC(=O)NCCCc2ccc3c4c(cccc24)N(C2CCC(=O)NC2=O)C3=O)c1` (stereo partly drawn) [Example 177, 3-(carboxymethoxy)-4-chloro-5-[3-[[(4S)-1-[3-[3-[[1-(2,6-dioxo-3-piperidyl)-2-oxo-benzo[cd]indol-5-yl]propylcarbamoylamino]phenyl]methylsulfonyl]-2,2-dimethyl-4-piperidyl]amino]phenyl]thiophene-2-carboxylic acid], for which the DC50 (in assay [1]; at PTPN2 (B16F10.4 cells)) was 50 to 200 nM each time.
For `Cn1c(=O)n(C2CCC(=O)NC2=O)c2ccc(C3CN(C(=O)Nc4cccc(CS(=O)(=O)N5CC[C@H](Nc6cccc(-c7sc(C(=O)O)c(OCC(=O)O)c7Cl)c6)CC5(C)C)c4)C3)cc21` (stereo partly drawn) [Example 106, 3-(carboxymethoxy)-4-chloro-5-[3-[[(4S)-1-[[3-[[3-[1-(2,6-dioxo-3-piperidyl)-3-methyl-2-oxo-benzimidazol-5-yl]azetidine-1-carbonyl]amino]phenyl]methylsulfonyl]-2,2-dimethyl-4-piperidyl]amino]phenyl]thiophene-2-carboxylic acid], the DC50 (in assay [1]; at PTPN2 (B16F10.4 cells)) was 50 to 200 nM in each case.
Regarding `CC1(C)C[C@@H](Nc2cccc(-c3sc(C(=O)O)c(OCC(=O)O)c3Cl)c2)CCN1S(=O)(=O)Cc1cccc(NC(=O)N2CCC(c3ccc4c(ccn4C4CCC(=O)NC4=O)c3)CC2)c1` (stereo partly drawn) [Example 196, 3-(carboxymethoxy)-4-chloro-5-(3-(((4S)-1-((3-(4-(1-(2,6-dioxopiperidin-3-yl)-1H-indol-5-yl)piperidine-1-carboxamido)benzyl)sulfonyl)-2,2-dimethylpiperidin-4-yl)amino)phenyl)thiophene-2-carboxylic acid], the DC50 (in assay [1]; on PTPN2 (B16F10.4 cells)) was 200 to 1000 nM each time.
In the case of `O=C(O)COc1c(C(=O)O)sc(-c2cccc(NC3CCN(S(=O)(=O)Cc4cccc(NC(=O)CCCCCCNC(=O)CNc5cccc6c5C(=O)N(C5CCC(=O)NC5=O)C6)c4)CC3)c2)c1Cl` (stereo not shown) [Example 30, 3-(carboxymethoxy)-4-chloro-5-[3-[[1-[[3-[7-[[2-[[2-(2,6-dioxo-3-piperidyl)-3-oxo-isoindolin-4-yl]amino]acetyl]amino]heptanoylamino]phenyl]methylsulfonyl]-4-piperidyl]amino]phenyl]thiophene-2-carboxylic acid], the DC50 in assay [1] was 200 to 1000 nM; on PTPN2 (B16F10.4 cells), at least 1000 nM.
For `O=C(O)COc1c(C(=O)O)sc(-c2cccc(NC3CCN(S(=O)(=O)Cc4ccc(F)c(NC(=O)C5CN(C(=O)CNc6cccc7c6CN(C6CCC(=O)NC6=O)C7=O)C5)c4)CC3)c2)c1Cl` (stereo not shown) [Example 78] the same measures were under 50 nM and at least 1000 nM.
Taken in the same sequence, the figures for `CC1(C)C[C@H](Oc2cccc(-c3sc(C(=O)O)c(OCC(=O)O)c3Cl)c2)CCN1S(=O)(=O)Cc1cccc(NC(=O)N2CCC(c3ccc4c5c(cccc35)C(=O)N4C3CCC(=O)NC3=O)CC2)c1` (stereo partly drawn) [Example 227, 3-(carboxymethoxy)-4-chloro-5-(3-(((4R)-1-((3-(4-(1-(2,6-dioxopiperidin-3-yl)-2-oxo-1,2-dihydrobenzo[cd]indol-6-yl)piperidine-1-carboxamido)benzyl)sulfonyl)-2,2-dimethylpiperidin-4-yl)oxy)phenyl)thiophene-2-carboxylic acid] were 200 to 1000 nM and 50 to 200 nM.
For `CC1(C)C[C@H](Nc2cccc(-c3sc(C(=O)O)c(OCC(=O)O)c3Cl)c2)CCN1S(=O)(=O)Cc1cccc(NC(=O)N2CCC(c3ccc4c(c3)n(C3COC3)c(=O)n4C3CCC(=O)NC3=O)CC2)c1` (stereo partly drawn) [Example 206, 3-(carboxymethoxy)-4-chloro-5-(3-(((4R)-1-((3-(4-(1-(2,6-dioxopiperidin-3-yl)-3-(oxetan-3-yl)-2-oxo-2,3-dihydro-1H-benzo[d]imidazol-5-yl)piperidine-1-carboxamido)benzyl)sulfonyl)-2,2-dimethylpiperidin-4-yl)amino)phenyl)thiophene-2-carboxylic acid] the same measures were 200 to 1000 nM and 50 to 200 nM.
On to `CN(C(=O)C1CCN(C(=O)CNc2cccc3c2CN(C2CCC(=O)NC2=O)C3=O)CC1)c1cccc(CS(=O)(=O)N2CC[C@@H](Nc3cccc(-c4sc(C(=O)O)c(OCC(=O)O)c4Cl)c3)CC2(C)C)c1` (stereo partly drawn) [Example 66, 3-(carboxymethoxy)-4-chloro-5-(3-(((4R)-1-((3-(1-((2-(2,6-dioxopiperidin-3-yl)-1-oxoisoindolin-4-yl)glycyl)-N-methylpiperidine-4-carboxamido)benzyl)sulfonyl)-2,2-dimethylpiperidin-4-yl)amino)phenyl)thiophene-2-carboxylic acid], for which the DC50 was 200 to 1000 nM in assay [1] and at least 1000 nM on PTPN2 (B16F10.4 cells).
For `O=C(O)COc1c(C(=O)O)sc(-c2cccc(NC3CCN(S(=O)(=O)Cc4cccc(NC(=O)C5CN(C(=O)CNc6cccc7c6CN(C6CCC(=O)NC6=O)C7=O)C5)c4F)CC3)c2)c1Cl` (stereo not shown) [Example 75], the DC50 is under 50 nM in assay [1] and at least 1000 nM on PTPN2 (B16F10.4 cells).
Taken in the same sequence, the figures for `Cn1c(=O)n(C2CCC(=O)NC2=O)c2ccc(C3CCN(C(=O)Nc4cccc(CS(=O)(=O)N5CC[C@H](Nc6cccc(-c7sc(C(=O)O)c(OCC(=O)O)c7Cl)c6)CC5(C)C)c4)CC3)cc21` (stereo partly drawn) [Example 60, 3-(carboxymethoxy)-4-chloro-5-(3-(((4S)-1-((3-(4-(1-(2,6-dioxopiperidin-3-yl)-3-methyl-2-oxo-2,3-dihydro-1H-benzo[d]imidazol-5-yl)piperidine-1-carboxamido)benzyl)sulfonyl)-2,2-dimethylpiperidin-4-yl)amino)phenyl)thiophene-2-carboxylic acid] were 50 to 200 nM and under 50 nM.
For `Cn1c(=O)n(C2CCC(=O)NC2=O)c2ccc(Nc3cccc(CC(=O)Nc4cccc(CS(=O)(=O)N5CC[C@H](Nc6cccc(-c7sc(C(=O)O)c(OCC(=O)O)c7Cl)c6)CC5(C)C)c4)c3)cc21` (stereo partly drawn) [Example 191, 3-(carboxymethoxy)-4-chloro-5-(3-(((4S)-1-((3-(2-(3-((1-(2,6-dioxopiperidin-3-yl)-3-methyl-2-oxo-2,3-dihydro-1H-benzo[d]imidazol-5-yl)amino)phenyl)acetamido)benzyl)sulfonyl)-2,2-dimethylpiperidin-4-yl)amino)phenyl)thiophene-2-carboxylic acid] the same measures were 50 to 200 nM and 50 to 200 nM.
Taken in the same sequence, the figures for `CC1(C)C[C@@H](Nc2cccc(-c3sc(C(=O)O)c(OCC(=O)O)c3Cl)c2)CCN1S(=O)(=O)Cc1cccc(NC(=O)N2CCC(n3c(=O)n(C4CCC(=O)NC4=O)c4ccccc43)CC2)c1` (stereo partly drawn) [Example 124, 3-(carboxymethoxy)-4-chloro-5-[3-[[(4S)-1-[[3-[[4-[3-(2,6-dioxo-3-piperidyl)-2-oxo-benzimidazol-1-yl]piperidine-1-carbonyl]amino]phenyl]methylsulfonyl]-2,2-dimethyl-4-piperidyl]amino]phenyl]thiophene-2-carboxylic acid] were 200 to 1000 nM and at least 1000 nM.

Source of the values: patent US20250302815A1, “PROTEIN TYROSINE PHOSPHATASE TARGETING LIGANDS” (CALICO LIFE SCIENCES LLC, priority 2021, published 2025).
